Key:
Experiment in all cases: Biological Example 2 glasshouse assay for herbicidal activity
Assay type in all cases: in vivo
Avena fatua (AVEFA) = conditions: post-emergence, 360 h, 14 or 15 DAA, 0.2% v/v X-77, read-out: percentage phytotoxicity AVEFA
Procedure: (§1) Seeds of a variety of monocotyledonous and dicotyledonous test plants are sown in standard soil in pots. The plants are cultivated for one day (for pre-emergence) or for about 12 days (range=10-13 days) (for post-emergence) under controlled conditions in a glasshouse (warm climate species at 24/18° C., cool climate species at 20/16° C., both at day/night; 16 hours light; 65% humidity).
(§2) An “instant formulation”, known as the “IF50”, containing 50 g/litre (i.e. 5% w/v) of the “technical” (i.e. unformulated) active ingredient is prepared by dissolving the active ingredient in a mixture of organic solvents and emulsifier, details of which are provided in the Table below. This IF50 is then mixed with a small, variable amount of acetone to aid dissolution, before addition of a 0.2% v/v aqueous solution of the adjuvant X-77 (which is a mixture of alkyl aryl polyoxyethylene glycols and free fatty acids in isopropanol, CAS Registry number 11097-66-8), as the aqueous diluent, to form an aqueous spray solution which contains a predetermined concentration of the active ingredient (which varies depending on the application rate of the active ingredient to the plants) and 0.2% v/v of the adjuvant X-77. This aqueous spray solution is then sprayed onto the plants, after one day's cultivation (for pre-emergence) or after about 12 days' cultivation (for post-emergence).
(§3) The test plants are then grown on, in a glasshouse (greenhouse) under controlled conditions (at either 24/18° C. or 20/16° C. (day/night) as mentioned above; 16 hours light; 65% humidity) and are watered twice daily. Either 14 or 15 days after application of the herbicide (14 or 15 DAA) (for post-emergence), or 20 days after application of the herbicide (20 DAA) (for pre-emergence), the test plants are evaluated visually, and an assessed percentage phytotoxicity score is given for each herbicidal application on each plant species (where 100%=total damage to plant; 0%=no damage to plant).
(§4) Some of the typical test plants are as follows: • Cool climate crop plants: Triticum aestivum (TRZAW, winter wheat), Brassica napus (BRSNN, rape, also called oilseed rape or rapeseed), Beta vulgaris (BEAVA, sugarbeet). • Warm climate crop plants: Glycine max (GLXMA, soybean). • Cool climate (“cool season”) grassy monocotyledonous weeds: Alopecurus myosuroides (ALOMY), Avena fatua (AVEFA), Lolium perenne (LOLPE), Poa annua (POAAN), Bromus tectorum (BROTE). • Warm climate (“warm season”) grassy monocotyledonous weeds: Setaria faberi (SETFA), SORVU (Sorghum bicolor (L.) Moench ssp. Bicolor, or Sorghum vulgare Pers.), Digitaria sanguinalis (DIGSA), Echinochloa crus-galli (ECHCG), Brachiaria plantaginea (BRAPL); Zea mays (ZEAMX, corn, maize, e.g. volunteer corn).

[1] = tested on: Alopecurus myosuroides (ALOMY); conditions: post-emergence, 360 h, 14 or 15 DAA, 0.2% v/v X-77, read-out: percentage phytotoxicity ALOMY
Procedure: as §1, §2, §3, §4

[2] = tested on: Beta vulgaris (BEAVA, sugarbeet); conditions: post-emergence, 360 h, 14 or 15 DAA, 0.2% v/v X-77, read-out: percentage phytotoxicity BEAVA
Procedure: as §1, §2, §3, §4

[3] = tested on: Brassica napus (BRSNN, rape); conditions: Brassica napus, 360 h, post-emergence, 14 or 15 DAA, 0.2% v/v X-77, read-out: percentage phytotoxicity BRSNN
Procedure: as §1, §2, §3, §4

Setaria faberi (SETFA) = conditions: post-emergence, 360 h, 14 or 15 DAA, 0.2% v/v X-77, read-out: percentage phytotoxicity SETFA
Procedure: as §1, §2, §3, §4

[4] = tested on: Echinochloa crus-galli (ECHCG); conditions: Echinochloa crus-galli, post-emergence, 360 h, 14 or 15 DAA, 0.2% v/v X-77, read-out: percentage phytotoxicity ECHCG
Procedure: as §1, §2, §3, §4

Lolium perenne (LOLPE) = conditions: Lolium perenne, post-emergence, 360 h, 14 or 15 DAA, 0.2% v/v X-77, read-out: percentage phytotoxicity LOLPE
Procedure: as §1, §2, §3, §4

[5] = tested on: Brachiaria plantaginea (BRAPL); conditions: Urochloa plantaginea, post-emergence, 360 h, 14 or 15 DAA, 0.2% v/v X-77, read-out: percentage phytotoxicity BRAPL
Procedure: as §1, §2, §3, §4

[6] = tested on: Zea mays (ZEAMX, corn, maize, e.g. volunteer corn); conditions: Zea mays, post-emergence, 360 h, 14 or 15 DAA, 0.2% v/v X-77, read-out: percentage phytotoxicity ZEAMX
Procedure: as §1, §2, §3, §4

[7] = tested on: Triticum aestivum (TRZAW, winter wheat); conditions: post-emergence, 360 h, 14 or 15 DAA, 0.2% v/v X-77, read-out: percentage phytotoxicity TRZAW
Procedure: as §1, §2, §3, §4

[8] = tested on: Glycine max (GLXMA, soybean); conditions: post-emergence, 360 h, 14 or 15 DAA, 0.2% v/v X-77, read-out: percentage phytotoxicity GLXMA
Procedure: as §1, §2, §3, §4

[9] = tested on: Digitaria sanguinalis (DIGSA); conditions: post-emergence, 360 h, 14 or 15 DAA, 0.2% v/v X-77, read-out: percentage phytotoxicity DIGSA
Procedure: as §1, §2, §3, §4

[10] = tested on: SORVU (Sorghum bicolor (L.) Moench ssp. Bicolor, or Sorghum vulgare Pers.); conditions: post-emergence, 360 h, 14 or 15 DAA, 0.2% v/v X-77, read-out: percentage phytotoxicity SORVU
Procedure: as §1, §2, §3, §4

SMILES	pest or weed control at 30 g/ha (Avena fatua (AVEFA)) [%]	pest or weed control at 250 g/ha (Avena fatua (AVEFA)) [%]	pest or weed control at 30 g/ha [1] [%]	pest or weed control at 250 g/ha [1] [%]	plant injury at 30 g/ha [2] [%]	plant injury at 250 g/ha [2] [%]	plant injury at 30 g/ha [3] [%]	plant injury at 250 g/ha [3] [%]	pest or weed control at 30 g/ha (Setaria faberi (SETFA)) [%]	pest or weed control at 250 g/ha (Setaria faberi (SETFA)) [%]	pest or weed control at 30 g/ha [4] [%]	pest or weed control at 250 g/ha [4] [%]	pest or weed control at 30 g/ha (Lolium perenne (LOLPE)) [%]	pest or weed control at 250 g/ha (Lolium perenne (LOLPE)) [%]	pest or weed control at 30 g/ha [5] [%]	pest or weed control at 250 g/ha [5] [%]	pest or weed control at 30 g/ha [6] [%]	pest or weed control at 250 g/ha [6] [%]	plant injury at 30 g/ha [7] [%]	plant injury at 30 g/ha [8] [%]	further results
CC#Cc1cc(F)c(C2=C(OC(=O)C(C)(C)C)C3CCC(C3)C2=O)c(OC)c1 (stereo not shown) [Compound P1]	80	90	80	90	0	0	10	80	80	90	100	100	100	100	100	90	100	100	60	0	plant injury at 250 g/ha [7]: 90%; plant injury at 250 g/ha [8]: 20%; pest or weed control at 30 g/ha [9]: 90%; pest or weed control at 250 g/ha [9]: 100%; pest or weed control at 30 g/ha [10]: 100%; pest or weed control at 250 g/ha [10]: 100%
CC#Cc1cc(F)c(C2=C(OC(=O)c3ccccc3)C3CCC(C3)C2=O)c(OC)c1 (stereo not shown) [Compound P5, [3-(2-fluoro-6-methoxy-4-prop-1-ynyl-phenyl)-4-oxo-2-bicyclo[3.2.1]oct-2-enyl]benzoate]	80	90	70	90	0	0	50	80	80	90	100	100	80	100	90	100	90	100	50	0	plant injury at 250 g/ha [8]: 0%; pest or weed control at 30 g/ha [9]: 100%; pest or weed control at 250 g/ha [9]: 100%; pest or weed control at 30 g/ha [10]: 80%; pest or weed control at 250 g/ha [10]: 100%
CC#Cc1cc(F)c(C2=C(OC(=O)SCC)C3CCC(C3)C2=O)c(OC)c1 (stereo not shown) [Compound P4]	90	100	80	100	0	0	50	80	90	100	90	100	90	100	100	100	100	100	80	10	plant injury at 250 g/ha [7]: 100%; plant injury at 250 g/ha [8]: 20%; pest or weed control at 30 g/ha [9]: 80%; pest or weed control at 250 g/ha [9]: 100%; pest or weed control at 30 g/ha [10]: 100%; pest or weed control at 250 g/ha [10]: 100%
CC#Cc1cc(F)c(C2=C(OC(=O)OC(C)C)C3CCC(C3)C2=O)c(OC)c1 (stereo not shown) [Compound P3]	90	90	70	90	0	0	10	80	100	100	100	100	90	100	100	100	100	100	80	0	plant injury at 250 g/ha [7]: 90%; plant injury at 250 g/ha [8]: 0%; pest or weed control at 30 g/ha [9]: 100%; pest or weed control at 250 g/ha [9]: 100%; pest or weed control at 30 g/ha [10]: 100%; pest or weed control at 250 g/ha [10]: 100%

From patent US10590143B2, “Herbicidally active (alkynyl-phenyl)-substituted cyclic dione compounds and derivatives thereof” (Syngenta Limited, priority 2013, dated 2020)
